pIC50: −log10 of the molar value.
Legend:
[1] = molecular target: human TLR7 (Homo sapiens (Human), UniProt Q9NYK1); test: TLR7 inhibition reporter assay (HEK-Blue cells, SEAP reporter, gardiquimod stimulation); format: cell-based; details: HEK-Blue cells overexpressing human TLR7, gardiquimod 7.5 μM
[2] = molecular target: human TLR8 (Homo sapiens (Human), UniProt Q9NR97); test: TLR8 inhibition reporter assay (HEK-Blue cells, SEAP reporter, R848 stimulation); details: read-out: TLR8 IC50, HEK-Blue cells overexpressing human TLR8, R848 15.9 μM;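 further: compounds tested from 0.05 nM to 50 µM, 22 h at 37 °C, SEAP measured with HEK-Blue Detection, inhibition relative to agonist plus DMSO versus a known inhibitor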
human TLR8, sequence (Q9NR97 27-1041): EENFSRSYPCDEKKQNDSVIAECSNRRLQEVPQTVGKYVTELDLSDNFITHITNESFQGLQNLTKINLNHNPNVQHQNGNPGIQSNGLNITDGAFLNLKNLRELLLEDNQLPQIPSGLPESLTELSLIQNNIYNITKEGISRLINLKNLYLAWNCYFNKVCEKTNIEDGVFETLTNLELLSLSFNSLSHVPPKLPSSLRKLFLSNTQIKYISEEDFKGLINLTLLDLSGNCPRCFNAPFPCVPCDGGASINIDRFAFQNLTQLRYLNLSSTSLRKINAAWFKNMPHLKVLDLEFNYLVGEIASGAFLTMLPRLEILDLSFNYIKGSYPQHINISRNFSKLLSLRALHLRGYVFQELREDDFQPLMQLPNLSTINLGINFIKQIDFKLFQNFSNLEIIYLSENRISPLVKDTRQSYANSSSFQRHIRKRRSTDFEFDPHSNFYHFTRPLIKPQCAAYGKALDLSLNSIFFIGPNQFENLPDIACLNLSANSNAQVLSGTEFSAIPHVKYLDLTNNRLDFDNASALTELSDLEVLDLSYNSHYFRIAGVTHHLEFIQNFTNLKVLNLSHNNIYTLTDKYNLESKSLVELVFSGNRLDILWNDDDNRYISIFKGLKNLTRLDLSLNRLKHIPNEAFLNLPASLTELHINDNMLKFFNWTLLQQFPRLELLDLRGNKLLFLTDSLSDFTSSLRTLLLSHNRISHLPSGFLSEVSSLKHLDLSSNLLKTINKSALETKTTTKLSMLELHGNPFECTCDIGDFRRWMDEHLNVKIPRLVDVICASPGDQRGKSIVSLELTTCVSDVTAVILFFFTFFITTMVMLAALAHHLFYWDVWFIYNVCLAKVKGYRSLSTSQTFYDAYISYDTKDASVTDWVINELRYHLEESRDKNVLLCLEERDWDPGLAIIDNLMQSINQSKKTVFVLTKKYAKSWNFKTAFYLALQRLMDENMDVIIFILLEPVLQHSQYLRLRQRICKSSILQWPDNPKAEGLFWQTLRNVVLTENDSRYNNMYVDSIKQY

[3] = molecular target: human TLR9 (Homo sapiens (Human), UniProt Q9NR96); test: TLR9 inhibition reporter assay (HEK-Blue cells, SEAP reporter, ODN2006 stimulation); details: read-out: TLR9 IC50, HEK-Blue cells overexpressing human TLR9, ODN2006 5 nM;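 further: compounds tested over 0.05 nM to 50 µM, 22 h incubation, inhibition taken as SEAP signal drop from agonist plus DMSO wells toward a known inhibitor control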
human TLR9, sequence (Q9NR96 26-1032): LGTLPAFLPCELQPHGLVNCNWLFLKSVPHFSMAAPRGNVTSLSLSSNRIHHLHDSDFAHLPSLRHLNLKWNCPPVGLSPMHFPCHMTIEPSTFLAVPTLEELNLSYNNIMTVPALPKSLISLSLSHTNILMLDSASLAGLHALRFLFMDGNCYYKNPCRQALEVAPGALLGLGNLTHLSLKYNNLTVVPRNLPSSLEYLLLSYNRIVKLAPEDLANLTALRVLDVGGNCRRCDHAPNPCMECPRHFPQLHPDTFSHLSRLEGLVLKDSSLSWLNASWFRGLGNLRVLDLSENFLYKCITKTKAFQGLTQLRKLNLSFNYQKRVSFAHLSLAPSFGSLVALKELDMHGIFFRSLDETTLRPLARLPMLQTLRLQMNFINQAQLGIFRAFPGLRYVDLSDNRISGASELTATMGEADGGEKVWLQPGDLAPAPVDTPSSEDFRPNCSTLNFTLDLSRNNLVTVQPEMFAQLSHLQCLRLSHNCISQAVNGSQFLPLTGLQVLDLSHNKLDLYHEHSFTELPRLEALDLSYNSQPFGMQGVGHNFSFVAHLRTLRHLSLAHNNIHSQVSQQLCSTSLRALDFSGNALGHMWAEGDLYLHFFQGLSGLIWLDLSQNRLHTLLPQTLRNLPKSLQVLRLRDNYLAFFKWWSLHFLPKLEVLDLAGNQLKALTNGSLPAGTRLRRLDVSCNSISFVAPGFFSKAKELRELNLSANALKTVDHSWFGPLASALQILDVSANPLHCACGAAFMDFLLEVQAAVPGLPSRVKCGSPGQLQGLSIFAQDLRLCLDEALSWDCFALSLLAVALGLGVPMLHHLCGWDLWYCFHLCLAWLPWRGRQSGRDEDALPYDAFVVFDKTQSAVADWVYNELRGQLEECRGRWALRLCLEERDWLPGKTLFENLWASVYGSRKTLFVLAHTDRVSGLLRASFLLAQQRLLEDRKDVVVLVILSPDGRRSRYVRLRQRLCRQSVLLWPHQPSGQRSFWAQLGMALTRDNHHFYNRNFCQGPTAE

human TLR7, sequence (Q9NYK1 27-1049): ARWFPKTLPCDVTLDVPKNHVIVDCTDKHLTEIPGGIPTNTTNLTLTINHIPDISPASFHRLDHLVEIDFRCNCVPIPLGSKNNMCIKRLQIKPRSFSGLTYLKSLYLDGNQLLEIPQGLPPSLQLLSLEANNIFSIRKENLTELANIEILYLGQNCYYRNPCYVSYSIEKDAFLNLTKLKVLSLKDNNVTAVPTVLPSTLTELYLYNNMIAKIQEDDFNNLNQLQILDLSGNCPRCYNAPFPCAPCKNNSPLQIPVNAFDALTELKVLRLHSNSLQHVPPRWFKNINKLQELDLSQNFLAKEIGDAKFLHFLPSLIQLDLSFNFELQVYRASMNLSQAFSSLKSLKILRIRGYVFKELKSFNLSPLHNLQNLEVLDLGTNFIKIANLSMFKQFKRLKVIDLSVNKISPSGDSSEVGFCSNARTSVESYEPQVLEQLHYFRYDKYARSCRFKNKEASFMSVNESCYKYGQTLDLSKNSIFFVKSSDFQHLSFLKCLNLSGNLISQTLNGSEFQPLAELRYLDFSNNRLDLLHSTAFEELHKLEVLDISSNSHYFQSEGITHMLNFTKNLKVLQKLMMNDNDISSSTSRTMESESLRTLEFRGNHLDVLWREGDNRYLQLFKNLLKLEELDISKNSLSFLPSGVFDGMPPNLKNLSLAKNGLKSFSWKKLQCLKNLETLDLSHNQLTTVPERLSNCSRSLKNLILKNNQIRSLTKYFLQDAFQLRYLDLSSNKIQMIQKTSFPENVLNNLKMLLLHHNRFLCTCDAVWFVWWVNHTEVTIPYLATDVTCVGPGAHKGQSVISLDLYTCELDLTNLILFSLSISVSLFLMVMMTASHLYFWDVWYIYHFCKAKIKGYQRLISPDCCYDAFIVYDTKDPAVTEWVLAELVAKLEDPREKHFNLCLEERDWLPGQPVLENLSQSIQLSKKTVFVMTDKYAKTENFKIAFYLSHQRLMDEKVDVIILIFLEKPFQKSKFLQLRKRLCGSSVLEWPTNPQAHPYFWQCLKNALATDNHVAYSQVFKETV

pIC50 [1] | pIC50 [2] | pIC50 [3] | SMILES
7.15 | 7.64 | 6.54 | CCc1c(-c2ccnc(C)c2)[nH]c2ccc(C3CCN(CCCN(C)C)CC3)cc12 [Example 673, 3-(4-(3-ethyl-2-(2-methylpyridin-4-yl)-1H-indol-5-yl)piperidin-1-yl)-N,N-dimethylpropan-1-amine]
6.84 | 7.13 | 5.72 | Cc1nccc(-c2[nH]c3ccc(C4CCN(C5CCOCC5)CC4)cc3c2C(C)C)c1C [Example 716, 2-(2,3-dimethylpyridin-4-yl)-3-isopropyl-5-(1-(tetrahydro-2H-pyran-4-yl)piperidin-4-yl)-1H-indole]
6.67 | 7.95 | 7.09 | CCc1c(-c2ccncc2)[nH]c2ccc(C3CCN(C4CCN(C(C)C)CC4)CC3)cc12 [Example 804, 3-ethyl-5-(1′-isopropyl-[1,4′-bipiperidin]-4-yl)-2-(pyridin-4-yl)-1H-indole]
5.40 | 6.61 | 7.08 | CCc1c(-c2ccnc(NC(C)=O)c2)[nH]c2ccc(C3CCN(C4CCN(CC(C)C)CC4)CC3)cc12 [Example 766, N-(4-(3-ethyl-5-(1′-isobutyl-[1,4′-bipiperidin]-4-yl)-1H-indol-2-yl)pyridin-2-yl)acetamide]
7.87 | 8.66 | 5.21 | Cc1cc(-c2[nH]c3ccc(C4CCN(CCC#N)CC4)cc3c2C(C)C)c(C)cn1 [Example 665, 3-(4-(2-(2,5-dimethylpyridin-4-yl)-3-isopropyl-1H-indol-5-yl)piperidin-1-yl)propanenitrile]
6.30 | 7.09 | 6.39 | CCc1c(-c2ccnc(OC)c2)[nH]c2ccc(C3CCN(C4CCN(CC(C)C)CC4)CC3)cc12 [Example 780, 3-ethyl-5-(1′-isobutyl-[1,4′-bipiperidin]-4-yl)-2-(2-methoxypyridin-4-yl)-1H-indole]
6.92 | 6.33 | 4.76 | Cc1cc(-c2[nH]c3ccc(C4CCN(C(=O)C(F)(F)F)CC4)cc3c2C(C)C)ccn1 [Example 614, 2,2,2-trifluoro-1-(4-(3-isopropyl-2-(2-methylpyridin-4-yl)-1H-indol-5-yl)piperidin-1-yl)ethan-1-one]
6.89 | 6.95 | < 4.30 | CC(=O)Nc1ccc(S(=O)(=O)N2CCC(c3ccc4[nH]c(-c5ccnc(C)c5)c(C(C)C)c4c3)CC2)cc1 [Example 552, N-(4-((4-(3-isopropyl-2-(2-methylpyridin-4-yl)-1H-indol-5-yl)piperidin-1-yl)sulfonyl)phenyl)acetamide]
7.61 | 8.20 | 5.23 | Cc1cc(-c2[nH]c3ccc(C4CCN(C5COC5)CC4)cc3c2C(C)C)c(C)cn1 [Example 722, 2-(2,5-dimethylpyridin-4-yl)-3-isopropyl-5-(1-(oxetan-3-yl)piperidin-4-yl)-1H-indole]
8.23 | 7.57 | 6.15 | Cc1cc(-c2[nH]c3ccc(C4CCN(CC(=O)N(C)C)CC4)cc3c2C(C)C)cc(C2CC2)n1 [Example 505, 2-(4-(2-(2-cyclopropyl-6-methylpyridin-4-yl)-3-isopropyl-1H-indol-5-yl)piperidin-1-yl)-N,N-dimethylacetamide]

More lines, now with the values behind:

SMILES | pIC50 [1] | pIC50 [2] | pIC50 [3]
CCCN(CCO)C(=O)CN1CCC(c2ccc3[nH]c(-c4cc(C)nc(C)c4)c(C(C)C)c3c2)CC1 [Example 295, 2-(4-(2-(2,6-dimethylpyridin-4-yl)-3-isopropyl-1H-indol-5-yl)piperidin-1-yl)-N-(2-hydroxyethyl)-N-propylacetamide] | 7.52 | 6.85 | 5.50
Cc1cc(-c2[nH]c3ccc(C4CCNCC4)cc3c2C(C)C)cc(N2CCN(C)CC2)n1 [Example 480, 3-isopropyl-2-(2-methyl-6-(4-methylpiperazin-1-yl)pyridin-4-yl)-5-(piperidin-4-yl)-1H-indole] | 5.54 | 5.15 | 6.15
CCCN(CCO)CC(=O)N1CCC(c2ccc3[nH]c(-c4cc(C)nc(C)c4)c(C(C)C)c3c2)CC1 [Example 398, 1-(4-(2-(2,6-dimethylpyridin-4-yl)-3-isopropyl-1H-indol-5-yl)piperidin-1-yl)-2-((2-hydroxyethyl)(propyl)amino)ethan-1-one] | 8.46 | 7.59 | 6.11
CC(C)c1c(-c2cc(Cl)ncc2C#N)[nH]c2ccc(C3CCNCC3)cc12 [Example 26, 6-chloro-4-(3-isopropyl-5-(piperidin-4-yl)-1H-indol-2-yl)nicotinonitrile] | 6.70 | 6.32 | 5.20
CCC(CC)N1CCC(c2ccc3[nH]c(-c4cc(C)nc(C)c4)c(C(C)C)c3c2)CC1 [Example 436, 2-(2,6-dimethylpyridin-4-yl)-3-isopropyl-5-(1-(pentan-3-yl)piperidin-4-yl)-1H-indole] | 8.35 | 8.33 | 7.03
CO[C@@H]1C[C@H](CO)N(CC(=O)N2CCC(c3ccc4[nH]c(-c5cc(C)nc(C)c5)c(C(C)C)c4c3)CC2)C1 [Example 395, 1-(4-(2-(2,6-dimethylpyridin-4-yl)-3-isopropyl-1H-indol-5-yl)piperidin-1-yl)-2-((2R,4R)-2-(hydroxymethyl)-4-methoxypyrrolidin-1-yl)ethan-1-one] | 8.01 | 7.39 | 6.00
Cc1cc(-c2[nH]c3ccc(C4CCN(Cc5ncn(C)n5)CC4)cc3c2C(C)C)cc(C)n1 [Example 451, 2-(2,6-dimethylpyridin-4-yl)-3-isopropyl-5-(1-((1-methyl-1H-1,2,4-triazol-3-yl)methyl)piperidin-4-yl)-1H-indole] | 8.23 | 7.91 | 5.81
Cc1cc(-c2[nH]c3ccc(C4CCN(C5CC(C)OC6(CC6)C5)CC4)cc3c2C(C)C)cc(C)n1 (stereo not drawn) [Example 456, 2-(2,6-dimethylpyridin-4-yl)-3-isopropyl-5-(1-(5-methyl-4-oxaspiro[2.5]octan-7-yl)piperidin-4-yl)-1H-indole] | 8.38 | 8.24 | 6.47
Cc1cc(-c2[nH]c3ccc(C4CCN(CC(=O)N(C)C5CCCCC5)CC4)cc3c2C(C)C)cc(C)n1 [Example 278, N-cyclohexyl-2-(4-(2-(2,6-dimethylpyridin-4-yl)-3-isopropyl-1H-indol-5-yl)piperidin-1-yl)-N-methylacetamide] | 8.21 | 7.55 | 6.54
Cc1cc(-c2[nH]c3ccc(C4CCNCC4)cc3c2C(C)C(F)(F)F)cc(C)n1 (stereo not drawn) [Example 92, 2-(2,6-dimethylpyridin-4-yl)-5-(piperidin-4-yl)-3-(1,1,1-trifluoropropan-2-yl)-1H-indole] | 9.22 | 8.28 | 6.35
COCCOCCN1CCC(c2ccc3[nH]c(-c4cc(C)nc(C)c4)c(C(C)C)c3c2)CC1 [Example 324, 2-(2,6-dimethylpyridin-4-yl)-3-isopropyl-5-(1-(2-(2-methoxyethoxy)ethyl)piperidin-4-yl)-1H-indole] | 8.13 | 8.36 | 6.38
Cc1cc(-c2[nH]c3ccc(C4CCN(C(=O)CCCN(C)C)CC4)cc3c2C(C)C)cc(C)n1 [Example 111, 4-(dimethylamino)-1-(4-(2-(2,6-dimethylpyridin-4-yl)-3-isopropyl-1H-indol-5-yl)piperidin-1-yl)butan-1-one] | 7.12 | 6.59 | 4.89

— US10660877B2 (BRISTOL-MYERS SQUIBB COMPANY, priority 2016, dated 2020)
